Data reported in patent US11247990B1, “Bicyclic fused pyridine compounds as inhibitors of TAM kinases” (ARRAY BIOPHARMA INC., priority 2017, dated 2022).

Experiments:
Details in all cases: averaged IC50
[1] = target: His-tagged recombinant human AXL cytoplasmic domain (Homo sapiens (Human), UniProt P30530); test: AXL Enzyme Assay (LanthaScreen Eu Kinase Binding, TR-FRET)
Procedure, shortened: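 Compound displacement measured by TR-FRET after 60 min at 22 °C, using Eu-based LanthaScreen binding technology. Ratiometric emission converted to percent of control, fitted to a 4-parameter logistic curve, with IC50 at 50 POC.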

[2] = target: GST-tagged recombinant human TYRO3 kinase domain (Homo sapiens (Human), UniProt Q06418); test: TYRO3 Enzyme Assay (LanthaScreen Eu Kinase Binding, TR-FRET)
Procedure, shortened: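 LanthaScreen Eu binding (tracer displacement) format read by TR-FRET after 60 min at 22 °C. Emission ratio converted to percent of control; IC50 taken where a 4-parameter logistic fit crosses 50 POC.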

[3] = target: His-tagged recombinant human MER cytoplasmic domain (Homo sapiens (Human), UniProt Q12866); test: MER Enzyme Assay (LanthaScreen Eu Kinase Binding, TR-FRET)
Procedure, shortened: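 Percent of control, derived from ratiometric TR-FRET emission, was fitted to a 4-parameter logistic curve and IC50 taken at 50 POC. Binding was read after 60 min at 22 °C using Eu-based LanthaScreen technology and recombinant His-tagged MER cytoplasmic domain.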

Sequence of His-tagged recombinant human AXL cytoplasmic domain (P30530 473-894): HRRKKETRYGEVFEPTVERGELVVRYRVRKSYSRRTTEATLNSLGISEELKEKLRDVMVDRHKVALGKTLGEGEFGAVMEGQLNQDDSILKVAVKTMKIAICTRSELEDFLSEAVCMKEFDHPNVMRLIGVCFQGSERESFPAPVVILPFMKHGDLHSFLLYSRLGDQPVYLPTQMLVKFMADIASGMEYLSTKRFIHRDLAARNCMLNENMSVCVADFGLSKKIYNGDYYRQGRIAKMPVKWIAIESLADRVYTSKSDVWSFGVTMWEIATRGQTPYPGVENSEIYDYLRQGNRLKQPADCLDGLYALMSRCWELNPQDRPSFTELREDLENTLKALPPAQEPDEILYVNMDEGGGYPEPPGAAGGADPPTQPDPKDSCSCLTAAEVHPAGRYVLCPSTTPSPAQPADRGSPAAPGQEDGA
Sequence of His-tagged recombinant human MER cytoplasmic domain (Q12866 527-999): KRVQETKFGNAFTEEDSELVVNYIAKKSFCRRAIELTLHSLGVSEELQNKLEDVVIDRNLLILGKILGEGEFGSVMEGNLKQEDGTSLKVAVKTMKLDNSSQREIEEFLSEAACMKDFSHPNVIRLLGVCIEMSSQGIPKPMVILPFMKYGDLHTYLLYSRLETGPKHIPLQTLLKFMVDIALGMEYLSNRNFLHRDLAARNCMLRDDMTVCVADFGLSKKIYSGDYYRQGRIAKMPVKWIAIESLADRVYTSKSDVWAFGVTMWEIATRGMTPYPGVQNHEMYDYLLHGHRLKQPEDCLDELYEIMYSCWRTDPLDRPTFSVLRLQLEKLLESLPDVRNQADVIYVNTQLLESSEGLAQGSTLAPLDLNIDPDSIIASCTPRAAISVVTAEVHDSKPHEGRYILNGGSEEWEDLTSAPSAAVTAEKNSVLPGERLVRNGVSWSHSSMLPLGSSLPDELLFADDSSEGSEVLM
Sequence of GST-tagged recombinant human TYRO3 kinase domain (Q06418 518-790): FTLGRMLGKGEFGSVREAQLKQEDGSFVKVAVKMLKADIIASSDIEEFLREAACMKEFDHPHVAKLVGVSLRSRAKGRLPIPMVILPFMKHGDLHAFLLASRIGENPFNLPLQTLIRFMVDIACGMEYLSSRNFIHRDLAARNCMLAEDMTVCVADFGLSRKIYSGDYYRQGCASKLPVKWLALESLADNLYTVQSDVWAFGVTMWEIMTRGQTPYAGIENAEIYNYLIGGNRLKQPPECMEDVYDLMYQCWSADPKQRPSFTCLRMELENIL

SMILES | IC50 [1] [nM] | IC50 [2] [nM] | IC50 [3] [nM]
CCNc1cc2c(cn1)c(-c1cnn([C@H]3CC[C@H](O)CC3)c1)nn2[C@H]1CC[C@@H](Oc2nccc(C(F)(F)F)c2F)CC1 [Example 272, (1R,4r)-4-(4-(6-(ethylamino)-1-((1s,4S)-4-((3-fluoro-4-(trifluoromethyl)pyridin-2-yl)oxy)cyclohexyl)-1H-pyrazolo[4,3-c]pyridin-3-yl)-1H-pyrazol-1-yl)cyclohexan-1-ol] | < 10 | 10 to 100 | < 10
CCNc1cc2c(cn1)c(-c1ccn(C)c(=O)c1)nn2[C@H]1CC[C@@H](Oc2nccc(C(F)(F)F)c2F)CC1 [Example 297, 4-(6-(ethylamino)-1-((1s,4s)-4-((3-fluoro-4-(trifluoromethyl)pyridin-2-yl)oxy)cyclohexyl)-1H-pyrazolo[4,3-c]pyridin-3-yl)-1-methylpyridin-2(1H)-one] | < 10 | 10 to 100 | < 10
CCNc1cc2c(cn1)c(-c1ccc(=O)n(C)c1)nn2[C@H]1CC[C@@H](Oc2nccc(C(F)(F)F)c2F)CC1 [Example 298, 5-(6-(ethylamino)-1-((1s,4s)-4-((3-fluoro-4-(trifluoromethyl)pyridin-2-yl)oxy)cyclohexyl)-1H-pyrazolo[4,3-c]pyridin-3-yl)-1-methylpyridin-2(1H)-one] | < 10 | 10 to 100 | < 10
CCNc1cc2c(cn1)c(-c1cnn(C(C)(C)CO)c1)nn2[C@H]1CC[C@@H](Oc2nccc(C(F)(F)F)c2F)CC1 [Example 299, 2-(4-(6-(ethylamino)-1-((1s,4s)-4-((3-fluoro-4-(trifluoromethyl)pyridin-2-yl)oxy)cyclohexyl)-1H-pyrazolo[4,3-c]pyridin-3-yl)-1H-pyrazol-1-yl)-2-methylpropan-1-ol] | < 10 | 10 to 100 | < 10
CCNc1cc2c(cn1)c(-c1cnn(CC(C)(C)O)c1)nn2[C@H]1CC[C@@H](Oc2nccc(C(F)(F)F)c2F)CC1 [Example 300, 1-(4-(6-(ethylamino)-1-((1s,4s)-4-((3-fluoro-4-(trifluoromethyl)pyridin-2-yl)oxy)cyclohexyl)-1H-pyrazolo[4,3-c]pyridin-3-yl)-1H-pyrazol-1-yl)-2-methylpropan-2-ol] | < 10 | 10 to 100 | < 10
CCNc1cc2c(cn1)c(-c1cnc(C)o1)nn2[C@H]1CC[C@@H](Oc2nccc(C(F)(F)F)c2F)CC1 [Example 308, N-ethyl-1-((1s,4s)-4-((3-fluoro-4-(trifluoromethyl)pyridin-2-yl)oxy)cyclohexyl)-3-(2-methyloxazol-5-yl)-1H-pyrazolo[4,3-c]pyridin-6-amine] | < 10 | 100 to 1000 | < 10
CCNc1cc2c(cn1)c(-c1cnn(C)c1)nn2[C@H]1CC[C@@H](Oc2c[nH]nc2C(F)(F)F)CC1 [Example 311, N-ethyl-3-(1-methyl-1H-pyrazol-4-yl)-1-((1s,4s)-4-((3-(trifluoromethyl)-1H-pyrazol-4-yl)oxy)cyclohexyl)-1H-pyrazolo[4,3-c]pyridin-6-amine] | < 10 | < 10 | < 10
CCNc1cc2c(cn1)c(-c1cnn(C(C)(C)C#N)c1)nn2[C@H]1CC[C@@H](Oc2cn[nH]c2C(F)(F)F)CC1 [Example 312, 2-(4-(6-(ethylamino)-1-((1s,4s)-4-((5-(trifluoromethyl)-1H-pyrazol-4-yl)oxy)cyclohexyl)-1H-pyrazolo[4,3-c]pyridin-3-yl)-1H-pyrazol-1-yl)-2-methylpropanenitrile] | < 10 | < 10 | < 10
CCNc1cc2c(cn1)c(C1CCN(C)CC1)nn2[C@H]1CC[C@@H](Oc2cn[nH]c2C(F)(F)F)CC1 [Example 313, N-ethyl-3-(1-methylpiperidin-4-yl)-1-((1s,4s)-4-((5-(trifluoromethyl)-1H-pyrazol-4-yl)oxy)cyclohexyl)-1H-pyrazolo[4,3-c]pyridin-6-amine] | < 10 | < 10 | < 10
CCNc1cc2c(cn1)c(C1CCN(C)CC1)nn2[C@H]1CC[C@@H](Oc2nccc(C(F)(F)F)c2F)CC1 [Example 316, N-ethyl-1-((1s,4s)-4-((3-fluoro-4-(trifluoromethyl)pyridin-2-yl)oxy)cyclohexyl)-3-(1-methylpiperidin-4-yl)-1H-pyrazolo[4,3-c]pyridin-6-amine] | < 10 | 10 to 100 | < 10
CCNc1cc2c(cn1)c(C1CCNCC1)nn2[C@H]1CC[C@@H](Oc2nccc(C(F)(F)F)c2F)CC1 [Example 319, N-ethyl-1-((1s,4s)-4-((3-fluoro-4-(trifluoromethyl)pyridin-2-yl)oxy)cyclohexyl)-3-(piperidin-4-yl)-1H-pyrazolo[4,3-c]pyridin-6-amine] | < 10 | < 10 | < 10

Further lines, results first:

IC50 [1] [nM] | IC50 [2] [nM] | IC50 [3] [nM] | SMILES
< 10 | < 10 | < 10 | CCNc1cc2c(cn1)c(-c1cnn(C)c1)nn2[C@H]1CC[C@@H](Oc2cn(C)nc2C(F)(F)F)CC1 [Example 279, N-ethyl-3-(1-methyl-1H-pyrazol-4-yl)-1-((1s,4s)-4-((1-methyl-3-(trifluoromethyl)-1H-pyrazol-4-yl)oxy)cyclohexyl)-1H-pyrazolo[4,3-c]pyridin-6-amine]
< 10 | < 10 | < 10 | CCNc1cc2c(cn1)c(-c1cnn(C(C)(C)C#N)c1)nn2[C@H]1CC[C@@H](Oc2cn(C)nc2C(F)(F)F)CC1 [Example 280, 2-(4-(6-(ethylamino)-1-((1s,4s)-4-((1-methyl-3-(trifluoromethyl)-1H-pyrazol-4-yl)oxy)cyclohexyl)-1H-pyrazolo[4,3-c]pyridin-3-yl)-1H-pyrazol-1-yl)-2-methylpropanenitrile]
< 10 | < 10 | < 10 | CCNc1cc2c(cn1)c(-c1cnn(C[C@@H](O)CO)c1)nn2[C@H]1CC[C@@H](Oc2cn(C)nc2C(F)(F)F)CC1 [Example 283, ®-3-(4-(6-(ethylamino)-1-((1s,4S)-4-((1-methyl-3-(trifluoromethyl)-1H-pyrazol-4-yl)oxy)cyclohexyl)-1H-pyrazolo[4,3-c]pyridin-3-yl)-1H-pyrazol-1-yl)propane-1,2-diol]
< 10 | < 10 | < 10 | CNc1cc2c(cn1)c(-c1ccc(S(C)(=O)=O)cc1)nn2[C@H]1CC[C@@H](Oc2cn(C)nc2C(F)(F)F)CC1 [Example 284, N-methyl-1-((1s,4s)-4-((1-methyl-3-(trifluoromethyl)-1H-pyrazol-4-yl)oxy)cyclohexyl)-3-(4-(methylsulfonyl)phenyl)-1H-pyrazolo[4,3-c]pyridin-6-amine]
< 10 | < 10 | < 10 | CNc1cc2c(cn1)c(-c1ccc(CN3CCN(C)CC3)cc1)nn2[C@H]1CC[C@@H](Oc2cn(C)nc2C(F)(F)F)CC1 [Example 285, N-methyl-1-((1s,4s)-4-((1-methyl-3-(trifluoromethyl)-1H-pyrazol-4-yl)oxy)cyclohexyl)-3-(4-((4-methylpiperazin-1-yl)methyl)phenyl)-1H-pyrazolo[4,3-c]pyridin-6-amine]
< 10 | < 10 | < 10 | CNc1cc2c(cn1)c(-c1ccc3c(c1)CN(C)C3=O)nn2[C@H]1CC[C@@H](Oc2cn(C)nc2C(F)(F)F)CC1 [Example 286, 2-methyl-5-(1-((1s,4s)-4-((1-methyl-3-(trifluoromethyl)-1H-pyrazol-4-yl)oxy)cyclohexyl)-6-(methylamino)-1H-pyrazolo[4,3-c]pyridin-3-yl)isoindolin-1-one]
< 10 | < 10 | < 10 | CCNc1cc2c(cn1)c(-c1ccc3c(c1)CNC3=O)nn2[C@H]1CC[C@@H](Oc2cn(C)nc2C(F)(F)F)CC1 [Example 287]
< 10 | < 10 | < 10 | CCNc1cc2c(cn1)c(-c1ccc3c(c1)CN(C)C3=O)nn2[C@H]1CC[C@@H](Oc2cn(C)nc2C(F)(F)F)CC1 [Example 288, 5-(6-(ethylamino)-1-((1s,4s)-4((1-methyl-3-(trifluoromethyl)-1H-pyrazol-4-yl)oxy)cyclohexyl)-1H-pyrazolo[4,3-c]pyridin-3-yl)-2-methylisoindolin-1-one]
< 10 | < 10 | < 10 | CCNc1cc2c(cn1)c(-c1ccc(CN3CCN(C)CC3)cc1)nn2[C@H]1CC[C@@H](Oc2cn(C)nc2C(F)(F)F)CC1 [Example 289, N-ethyl-1-((1s,4s)-4-((1-methyl-3-(trifluoromethyl)-1H-pyrazol-4-yl)oxy)cyclohexyl)-3-(4-((4-methylpiperazin-1-yl)methyl)phenyl)-1H-pyrazolo[4,3-c]pyridin-6-amine]
< 10 | < 10 | < 10 | CCNc1cc2c(cn1)c(-c1ccc(S(C)(=O)=O)cc1)nn2[C@H]1CC[C@@H](Oc2cn(C)nc2C(F)(F)F)CC1 [Example 290, N-ethyl-1-((1s,4s)-4-((1-methyl-3-(trifluoromethyl)-1H-pyrazol-4-yl)oxy)cyclohexyl)-3-(4-(methylsulfonyl)phenyl)-1H-pyrazolo[4,3-c]pyridin-6-amine]
< 10 | 10 to 100 | < 10 | CCNc1cc2c(cn1)c(-c1ccc(CN3CCN(C)CC3)cc1)nn2[C@H]1CC[C@@H](Oc2cnn(C)c2C(F)(F)F)CC1 [Example 293, N-ethyl-1-((1s,4s)-4-((1-methyl-5-(trifluoromethyl)-1H-pyrazol-4-yl)oxy)cyclohexyl)-3-(4-((4-methylpiperazin-1-yl)methyl)phenyl)-1H-pyrazolo[4,3-c]pyridin-6-amine]
